Calls of active or inactive are those of the source. The rule behind the calls is not given here.
Columns and labels:
Blood [1] = details: mouse, in vivo, iv, 2 min
Description: Biodistribution in ICR mouse blood at 1.1 MBq, iv after 2 mins postinjection

Blood [2] = details: mouse, in vivo, iv, 0.5 h
Description: Biodistribution in ICR mouse blood at 1.1 MBq, iv after 30 mins postinjection

Blood [3] = details: mouse, in vivo, iv, 1 h
Description: Biodistribution in ICR mouse blood at 1.1 MBq, iv after 60 mins postinjection

Cortex [4] = details: mouse, in vivo, iv, 2 min
Description: Biodistribution in ICR mouse cortex at 1.1 MBq, iv after 2 mins postinjection

Cortex [5] = details: mouse, in vivo, iv, 0.5 h
Description: Biodistribution in ICR mouse cortex at 1.1 MBq, iv after 30 mins postinjection

Cortex [6] = details: mouse, in vivo, iv, 1 h
Description: Biodistribution in ICR mouse cortex at 1.1 MBq, iv after 60 mins postinjection

Cerebellum [7] = details: mouse, in vivo, iv, 2 min
Description: Biodistribution in ICR mouse cerebellum at 1.1 MBq, iv after 2 mins postinjection

Cerebellum [8] = details: mouse, in vivo, iv, 0.5 h
Description: Biodistribution in ICR mouse cerebellum at 1.1 MBq, iv after 30 mins postinjection

Cerebellum [9] = details: mouse, in vivo, iv, 1 h
Description: Biodistribution in ICR mouse cerebellum at 1.1 MBq, iv after 60 mins postinjection

Brain [10] = details: mouse, in vivo, iv, 2 min
Description: Biodistribution in remaining brain of ICR mouse at 1.1 MBq, iv after 2 mins postinjection

Brain [11] = details: mouse, in vivo, iv, 0.5 h
Description: Biodistribution in remaining brain of ICR mouse at 1.1 MBq, iv after 30 mins postinjection

Brain [12] = details: mouse, in vivo, iv, 1 h
Description: Biodistribution in remaining brain of ICR mouse at 1.1 MBq, iv after 60 mins postinjection

in vitro = details: human, serum
Description: Metabolic stability in human serum assessed as compound remaining at 3.7 MBq after 120 mins by radio-TLC

physchem = details: octanol/PBS
Description: Octanol-PBS partition coefficient, log P of the compound by gamma counter

[13] = target: T1, Amyloid-beta precursor protein (Homo sapiens, UniProt P05067); assay: biochemical
Description: Displacement of [125I]TZDM from amyloid beta (1 to 42) aggregates in Alzheimer's disease-human brain homogenate after 3 hrs by gamma counting

[14] = target: T1, Amyloid-beta precursor protein; assay: biochemical; remark: listed apart in the source
Description: Displacement of [3H]PIB from amyloid beta (1 to 42) aggregates in Alzheimer's disease-human brain homogenate after 3 hrs by gamma counting

Mus musculus [15] = species: Mus musculus; assay: Binding affinity to beta-amyloid plaque in APPswe/PS1deltaE9 double transgenic mouse brain after 3 mins by Thioflavin-S fluorescence-based confocal microscopy; assay type: tissue-based
Mus musculus [16] = species: Mus musculus; assay: Binding affinity to beta-amyloid plaque in wild type mouse brain after 3 mins by Thioflavin-S fluorescence-based confocal microscopy; assay type: tissue-based

T1 sequence (P05067 whole entry): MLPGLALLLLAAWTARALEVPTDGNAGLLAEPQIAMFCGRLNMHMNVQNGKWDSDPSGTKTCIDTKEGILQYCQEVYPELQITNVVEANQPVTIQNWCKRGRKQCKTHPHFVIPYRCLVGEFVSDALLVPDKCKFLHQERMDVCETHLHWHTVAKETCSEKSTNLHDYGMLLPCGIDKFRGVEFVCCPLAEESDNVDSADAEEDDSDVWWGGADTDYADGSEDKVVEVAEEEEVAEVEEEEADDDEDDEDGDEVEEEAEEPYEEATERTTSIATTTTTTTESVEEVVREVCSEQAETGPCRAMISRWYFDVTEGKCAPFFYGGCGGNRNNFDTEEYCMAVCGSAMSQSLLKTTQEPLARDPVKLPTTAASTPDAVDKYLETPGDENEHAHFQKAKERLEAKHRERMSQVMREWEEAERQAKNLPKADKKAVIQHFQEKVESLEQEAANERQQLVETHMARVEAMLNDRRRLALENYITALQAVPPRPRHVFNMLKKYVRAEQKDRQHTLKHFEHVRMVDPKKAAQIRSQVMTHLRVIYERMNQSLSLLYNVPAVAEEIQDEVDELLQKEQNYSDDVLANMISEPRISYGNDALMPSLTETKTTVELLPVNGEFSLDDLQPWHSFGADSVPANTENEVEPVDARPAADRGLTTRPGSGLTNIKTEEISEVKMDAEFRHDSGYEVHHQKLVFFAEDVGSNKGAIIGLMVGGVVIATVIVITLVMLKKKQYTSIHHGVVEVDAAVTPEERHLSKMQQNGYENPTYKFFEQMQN

| SMILES | Drug uptake (Blood [1]) | Drug uptake (Blood [2]) | Drug uptake (Blood [3]) | Drug uptake (Cortex [4]) | Drug uptake (Cortex [5]) | Drug uptake (Cortex [6]) | Drug uptake (Cerebellum [7]) | Drug uptake (Cerebellum [8]) | Drug uptake (Cerebellum [9]) | Drug uptake (Brain [10]) | Drug uptake (Brain [11]) | Drug uptake (Brain [12]) | remaining at 2 h, 3.7 MBq (in vitro) | logP (physchem) | Ki [13] | Ki [14] | Activity (Mus musculus [15]) | Activity (Mus musculus [16]) |
| --- | --- | --- | --- | --- | --- | --- | --- | --- | --- | --- | --- | --- | --- | --- | --- | --- | --- | --- |
| CNc1ccc(-c2nc3ccc([18F])cc3s2)cc1 | 2.08 % ID/g | 1.13 % ID/g | 1.11 % ID/g | 6.62 % ID/g | 1.2 % ID/g | 0.73 % ID/g | 6.24 % ID/g | 1.38 % ID/g | 0.98 % ID/g | 6.3 % ID/g | 1.91 % ID/g | 1.32 % ID/g | 90% | – | – | – | – | – |
| CN(C)c1ccc(-c2nc3ccc(F)cc3s2)cc1 | – | – | – | – | – | – | – | – | – | – | – | – | – | 3.6 | 5.9 nM | 0.3 nM | – | – |
| CN(C)c1ccc(-c2nc3ccc([18F])cc3s2)cc1 | 1.55 % ID/g | 1.04 % ID/g | 1.02 % ID/g | 4.39 % ID/g | 2.17 % ID/g | 1.61 % ID/g | 4.45 % ID/g | 2.03 % ID/g | 1.16 % ID/g | 4.26 % ID/g | 2.8 % ID/g | 2.01 % ID/g | 90% | – | – | – | – | – |
| CNc1ccc(-c2nc3ccc(F)cc3s2)cc1 | – | – | – | – | – | – | – | – | – | – | – | – | – | 3.2 | 5.5 nM | 0.2 nM | Active | Active |
